In experiment [1] the test system is bovine cartilage explants. The experiment in a line: Bovine Cartilage Explant Assay (35S-GAG release, rhIL-1α stimulated; tissue culture). The experiment is classed as cell-based. The settings on record: Bos taurus, read-out: percent inhibition of extracellular matrix damage, Tissue Culture. The text has this: A tissue culture assay was used to measure the ability of the compounds of the present invention to slow the degradation of the extracellular matrix by metalloproteinases. This assay measured the amount of ^35 S-glycosaminoglycan (^35 S-GAG) released from labeled bovine cartilage explants.
Knee joints from a 1 to 3 week old calf were obtained immediately after sacrifice from the Abattoir and then transported on ice. The intact joints were washed well with tap water and soaked in 50% (v/v) Povidine iodine solution, obtained from Burre National, Inc., Baltimore, Md. All subsequent steps were performed in a laminar flow tissue culture hood using standard sterile technique. The joint was immobilized in a shank holder and the joint capsule was cut open to expose the articular cartilage. Cartilage explant plugs, approximately 15 mg wet weight, were removed from the flat articulating surfaces in the lower-most region of the knee joint using a sterile steel cork-borer and collected in a 250 mL roller bottle containing about 100 mL fresh Delbecco's minimum essential medium (DMEM), obtained from Gibco BRC, Life Technologies, Gaithersburg, Md., containing 4.5 g/1 (D)-glucose and (L)-glutamine, without sodium pyruvate. The fresh media also contained enough Hepes buffer and sodium bicarbonate such that the pH was about 7.4. The media was then further supplemented just before use with 100 units Penicillin, 100 μg Streptomycin, and 50 μg (L)-ascorbic acid per mL of medium.
Once collected, the explant plugs were washed four times with 50 mL fresh DMEM. The plugs were then placed in the incubator for a minimum of 1 hour to equilibrate, before proceeding to make disks from the articulating surface of each plug. A 1 mm thick disk was sliced from individual plugs from the end that was the articulating surface of the joint. The plug was held steady in the sterile template (4 mm diameter×1.5 mm deep) using sterile forceps. A scalpel blade was used to carefully slice off the disk. Only the superficial articulating surface responded well in culture.
Individual disks obtained were transferred to a tissue culture flask containing about 100 mL fresh media. The flask containing the disks was placed in an incubator at 37° C. (with 5% CO2, 95% air) and allowed to equilibrate overnight and at least one additional day before labeling. When ready to label, the old media was replaced with 50 mL fresh media containing about 500 μCi ^35 S-Sodium Sulfate. The plugs were labeled in bulk for about 48 hours. The next morning, the "hot" media was removed and replaced with fresh "cold" media. The disks were again allowed to equilibrate overnight before being used for actual experiments.
The media in which the disks were stored was changed immediately prior to performing the assay. The disks were then returned to the incubator until the test media and the two control media had been prepared. The test media consisted of a bile acid or bile acid derivative (50 μM) being tested for its ability to inhibit extracellular matrix degradation and concomitant recombinant human Interleukin rhIL-1α (5 ng/mL) in fresh DMEM solution. The control media were identical to the test media, except that the first control media lacked rhIL-1α and the second control media lacked an inhibitor, i.e. a bile acid or bile acid derivative. 250 μL of each of the test and control media were transferred to separate 96-well TC plates. Flamed forceps were used to transfer a disk from the incubator to each 96-well TC plates that had been filled with either the test media or one of the two control media.
The TC plates were then placed in the incubator and cultured for 3-4 days (initial incubation with rhIL-1α alpha takes at least 3 days to stimulate endogenous metalloproteinases). A 50 μL aliquot of media from each TC plate was saved and counted. The rest of the media was removed with a suction device.
The cartilage disks from each TC plate were also saved for counting. […]

The experiment “gelatinase (72 (Kd))” has as its target T1, gelatinase (72 (Kd) (Homo sapiens, UniProt P08253)).
T1 sequence (P08253 110-660): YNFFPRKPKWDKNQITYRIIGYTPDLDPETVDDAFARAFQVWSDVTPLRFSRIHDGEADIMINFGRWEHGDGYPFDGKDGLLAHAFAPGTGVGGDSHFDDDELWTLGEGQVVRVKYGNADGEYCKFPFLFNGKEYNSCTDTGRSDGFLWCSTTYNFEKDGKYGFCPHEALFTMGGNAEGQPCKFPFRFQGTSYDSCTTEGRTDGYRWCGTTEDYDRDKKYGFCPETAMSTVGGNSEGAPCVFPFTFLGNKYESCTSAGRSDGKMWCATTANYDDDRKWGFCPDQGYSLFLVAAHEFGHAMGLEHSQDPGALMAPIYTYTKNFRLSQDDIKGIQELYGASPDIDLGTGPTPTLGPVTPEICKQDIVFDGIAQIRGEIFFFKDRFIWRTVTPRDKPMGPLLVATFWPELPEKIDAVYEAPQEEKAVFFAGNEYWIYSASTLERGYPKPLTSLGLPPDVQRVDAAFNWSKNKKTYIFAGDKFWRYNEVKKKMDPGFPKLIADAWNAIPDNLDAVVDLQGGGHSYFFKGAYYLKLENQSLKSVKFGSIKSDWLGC
The experiment can be described thus: Assay of Gelatinase Inhibition Activity (72 Kd gelatinase). Format: biochemical. The settings on record: for inhibition at 10 µM: read-out: percent inhibition of gelatinase. The protocol:
(§1) Stromelysin was first activated by trypsin. This was done by preparing a reaction mixture in B-150 (B-150 consists of 150 mM NaCl, 20 mM Tris at pH 7.8 and 0.02% sodium azide) containing a final concentration of 4 μg/mL trypsin, 1.48 μg/mL of stromelysin, and 3.15 mM CaCl2. The reaction was incubated for 30 minutes at 37° C. and then quenched by adding soybean trypsin inhibitor to a final concentration of 43.6 μg/mL. ZnCl2 was added to the reaction mixture for a total concentration of 0.24 μM.
(§2) Following preparation of the solution of activated stromelysin, assay solutions were prepared for each inhibitor being tested. A control was also prepared. First, […] of activated stromelysin (about 45 μL from the solution of activated stromelysin) were aliquotted per assay tube. A 2.5 mM solution in 100% dimethyl sulfoxide (DMSO) was prepared for each inhibitor being tested and 1 μL from each inhibitor solution was added to one of the assay tubes. In addition, 1 μL of 100% DMSO was added to the control assay tube. All assay tubes were then pre-incubated for 5 minutes.
(§3) 5 μL of a previously prepared 50 μM solution of substrate in 15% DMSO were added to each assay tube. The substrate was a methoxycumarin developed by Knight et al. FEBS Lett. 296:263-66 (1992). The tubes were then incubated for 60 minutes, at which time the reaction was stopped with the addition of 750 μL of 0.1M NaAc pH 4.0 buffer.
(§4) Substrate hydrolysis was assessed by fluorescence using a slit width of 10:10, excitation at 328 nm and emission at 393 nm. The results of these assays are listed in Table I as percent inhibition at 10 μM of the bile acid provided compound tested or as the IC50.
The assay procedure for gelatinase (72 (Kd) was the same as described in Example 13 for stromelysin except that the trypsin activation was performed for 60 minutes. In addition, the incubation of the assay tubes at 37° C. was for 60 minutes, and the final enzyme concentration was 3 nm. The results of these assays are listed in Table I as percent inhibition at 10 μM of the compound tested.

Another experiment addresses stromelysin (Homo sapiens, UniProt P08254). The experiment in a line: Assay of Stromelysin Inhibition Activity (fluorogenic substrate hydrolysis). Format: biochemical. The settings on record: for inhibition at 10 µM: read-out: percent inhibition of stromelysin. The protocol: as §1, §2, §3, §4
The subject of another experiment is collagenase. The experiment in a line: Assay of Collagenase Inhibition Activity. The settings on record: at 10 μM of compound; 45 minutes at 37° C. Format: biochemical. How it is done:
as §1, §2, §3, §4
The assay procedure for collagenase was the same as described in Example 13 for stromelysin except that the trypsin activation was performed for 45 minutes. In addition, the incubation of the assay tubes at 37° C. was only for 45 minutes, and the final enzyme concentration is 6 nm. The results of these assays are provided in Table I as percent inhibition at 10 μM of the compound tested.

Another experiment deals with chondrocytes. The experiment can be described thus: Chondrocyte Cell Culture Matrix Breakdown Assay (35S release, rhIL-1α stimulated). The experiment is classed as cell-based, calf. The settings on record: at 50 μM; rhIL-1α 1 ng/ml; 22-24 hours. The protocol:
A cell culture assay was used to measure the ability of compounds to slow the degradation of the extracellular matrix by a metalloproteinase. This assay measured the amount ^35 S released from chondrocytes grown in a media with ^35 S labeled sodium sulfate. The cell culture assay was carried out as follows:
Two or three 1 to 3 week old calf joints were obtained from an abattoir. The proximal end of the shank was at about 4-5" long to facilitate immobilization in the holder. The joint was kept cool and transported on ice. The exterior of the intact joints was washed well with a suitable anti-microbial soap, rinsed clean with warm water, rinsed in betadine and then finally rinsed with 70% ethanol. Up to this point all steps were done in a manner to ensure that the joint was kept as clean as possible. All subsequent steps were performed in a sterile field (i.e., in a Edgeguard laminar flow tissue culture hood). The joint was immobilized and the synovial fluid was aspirated with a needle and syringe. The joint was then cut open to expose the articular cartilage using a #21 scalpel. Using locking hemostats, forceps and a #15 scalpel, the cartilage was excised in full thickness pieces. Care was taken not to cut too deep because bleeding would have occurred if the subchondral bone, was penetrated. The cartilage pieces were placed into a 50 mL centrifuge tube containing 25 mL of Delbecco's phosphate buffered saline (D-PBS) supplemented with 1% antibiotic solution (penicillin, streptomycin and fungizone; GIBCO/BRL). The slices from each joint were then placed into separate 50 mL centrifuge tubes. The D-PBS was decanted and replaced with 25 mL of fresh D-PBS supplemented with antibiotics and subsequently agitated gently.
The cartilage pieces were transferred to a fresh 50 mL centrifuge tube and rinsed once more with 25 mL of D-PBS minus antibiotics. An enzymatic digestion solution containing 1 mg/mL of hyaluronidase in serum-free 1:1 DMEM/Ham's F-12 (DMEM/F12) was prepared. This solution was filter sterilized with […] Milex--GV filter and kept on ice until ready to use. The cartilage pieces were digested with approximately 5 mL of hyaluronidase solution per joint for 2×15 minutes at 37° C. in the 50 mL centrifuge tube with gentle agitation at the 15 minute mark. This procedure removed residual hyaluronic acid from the surface of the chips. The enzymatic digestion solution was then aspirated and the cartilage pieces were rinsed with 25 mL of D-PBS.
A second enzymatic digestion solution containing 2.5 mg trypsin and 2 mg collagenase P per mL serum-free DMEM/F12 was prepared. This solution was also filter sterilized with a […] Millex--GV filter and kept on ice until ready to use. The cartilage pieces were digested with approximately 5 mL of trypsin: collagenase solution per joint for 2×15 minutes at 37° C. in the 50 mL centrifuge tube with gentle agitation at the 15 minute mark. This procedure removed the synovial fibroblasts and any adherent connective tissue from the surface of the chips. The enzymatic digestion solution was then carefully removed and saved and the cartilage pieces were rinsed with 25 mL of D-PBS.
A third enzymatic solution containing 2 mgs of collagenase P (BMB) per mL serum-free DMEM/F12 was prepared. This solution was filter sterilized with a […] Millex--GV filter and kept on ice until ready to use. The pre-digested cartilage pieces were finally digested with approximately 20 mL of enzymatic digestion solution per joint for 5-6 hours at 37° C. in a Bellco stirring digestion flask, at which point the cartilage was fully digested away.
The enzymes in the synovial fibroblast and chondrocyte digest were neutralized by addition of an equal volume of DMEM/F12 supplemented with 5% fetal bovine serum. Fibroblasts were plated in DMEM at a cellular density of 6.6×10^3 cells per cm^2. […]

Where [2] appears, read: at 10 μM of compound, 60 minutes at 37° C.

Read-outs that look alike come from different tables or passages of the source.

Sequence of stromelysin (P08254 100-477): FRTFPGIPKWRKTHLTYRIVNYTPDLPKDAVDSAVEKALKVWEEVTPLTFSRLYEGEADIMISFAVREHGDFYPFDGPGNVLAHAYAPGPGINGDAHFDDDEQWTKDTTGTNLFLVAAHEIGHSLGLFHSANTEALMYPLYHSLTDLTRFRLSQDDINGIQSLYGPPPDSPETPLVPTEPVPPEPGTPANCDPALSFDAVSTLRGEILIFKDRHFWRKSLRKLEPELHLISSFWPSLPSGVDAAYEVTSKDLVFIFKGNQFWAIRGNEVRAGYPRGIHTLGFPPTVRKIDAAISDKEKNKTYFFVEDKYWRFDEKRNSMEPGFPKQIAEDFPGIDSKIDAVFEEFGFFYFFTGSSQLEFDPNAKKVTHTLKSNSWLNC

With `C[C@H](CCC(=O)O)[C@H]1CC[C@H]2[C@@H]3[C@H](O)C[C@@H]4C[C@H](O)CC[C@]4(C)[C@H]3C[C@H](O)[C@]12C` [Compound 7, Cholic acid, reference compound], in experiment [1], the inhibition at 50 µM is -90%. The figures for the inhibition at 10 µM at gelatinase (72 (Kd)) and on stromelysin were 4% and 24%, respectively. In addition, the “percent inhibition of collagenase” value in the experiment on collagenase is on record as 21%.

Turning to `C[C@H](CCC(=O)NOCc1ccccc1)[C@H]1CC[C@H]2[C@@H]3CC[C@@H]4C[C@H](O)CC[C@]4(C)[C@H]3CC[C@]12C` [Compound 11, Lithocholyl-O-Benzylhydroxamate], the inhibition at 10 µM was 21% at gelatinase (72 (Kd)) (setting [2]) and 25% at stromelysin (at 10 μM of compound). For the same compound, the “percent inhibition of collagenase” value in the experiment with collagenase came out at 13%.

Regarding `C[C@H](CCC(=O)N[C@@H](Cc1c[nH]c2ccccc12)C(=O)O)[C@H]1CC[C@H]2[C@@H]3CC[C@@H]4C[C@H](O)CC[C@]4(C)[C@H]3CC[C@]12C` [Compound 17, Lithocholyl-(L)-Tryptophane], the inhibition at 50 µM in experiment [1] was 8%. Also, at gelatinase (72 (Kd)), the inhibition at 10 µM was determined as 5%.

In the case of `C[C@H](CCC(=O)N[C@@H](Cc1c[nH]c2ccccc12)C(=O)NO)[C@H]1CC[C@H]2[C@@H]3CC[C@@H]4C[C@H](O)CC[C@]4(C)[C@H]3CC[C@]12C` [Compound 18, Lithocholyl-(L)-Tryptophane Hydroxamic Acid], the inhibition at 50 µM in experiment [1] (at 50 μM, rhIL-1α 5 ng/mL, 3-4 days) is 3%. Also, the inhibition at 10 µM at gelatinase (72 (Kd)) (setting [2]) turned out to be 41%; at stromelysin (at 10 μM of compound), 90%. Further, the “percent inhibition of collagenase” value with collagenase is reported as 35%.

As for `CC(C)C(CC(=O)NO)NC(=O)CC[C@@H](C)[C@H]1CC[C@H]2[C@@H]3CC[C@@H]4C[C@H](O)CC[C@]4(C)[C@H]3CC[C@]12C` (stereo partly drawn) [Compound 21, Lithocholyl-β-Leucine Hydroxamic Acid], the “percent inhibition, Cell Culture” value in the experiment on chondrocytes came to 88%. The values for the IC50 on gelatinase (72 (Kd)) (60 minutes at 37° C.) and at stromelysin (60 minutes incubation) were 7 µM and 3 µM, respectively.

For orientation: inhibition means the relative decrease from the control value, in per cent. One may read the IC50 as the concentration needed to halve the response being measured.

(Values after patent US5646316A, “Bile acid inhibitors of metalloproteinase enzymes” (OsteoArthritis Sciences, Inc., priority 1995, dated 1997).)
